In US11014908B2, “Chemical compounds” (Pfizer Inc., priority 2018, dated 2021):
pIC50, pKd: −log10 of the molar value.

Legend:
[1] = target: T1, purified sickle cell hemoglobin (HbS) (Homo sapiens, UniProt P68871+P69905, E7V); assay: Binding affinity to purified HbS by Surface Plasmon Resonance (SPR); details: crosslinked biotinylated HbS, 1:1 binding model
T1 construct: HbS was obtained from the blood of homozygous S/S patients; from tissue; host or cells: red blood cells of homozygous S/S patients
Experimental: Binding Affinity, Kd (uM)
The binding affinity for compounds to purified sickle cell hemoglobin (HbS) was determined using Surface Plasmon Resonance (SPR). Patient Sickle Cell blood was obtained from Boston Children's Hospital in accordance with Institutional Review Board protocols. HbS was obtained from the blood of homozygous S/S patients, and purified using the method described in: Antonini and Brunori, Hemoglobin and Myoglobin in their Reactions with Ligands. Amsterdam, London, North-Holland Publishing Company, 1971. Whole blood was separated into red blood cell and plasma components by centrifugation, after which the plasma was decanted and discarded. Packed red blood cells were washed with normal saline (0.9% NaCl) and then lysed by 2:1 dilution with cold deionized water. The hemolysate was centrifuged to remove cellular debris, and further purified with the addition of Drabkin's Buffer (2.8 M potassium phosphate), and centrifugation with Celite®. Organic phosphates (2,3-BPG) were removed via gel filtration with Sephadex® G-25. HbS and wild-type hemoglobin, hemoglobin A (HbA), were separated by […], using diethylaminoethyl (DEAE)-Sepharose® fast flow, and eluted using a pH gradient from pH 8.5-pH 7.5. Purity of the resulting HbS and HbA was determined by native gel electrophoresis and HbS fractions used further.
To stabilize the tetrameric structure of hemoglobin, HbS was crosslinked between the beta subunits (Lys82-Lys82) using bis(3,5-dibromosalicyl) fumarate, as described in: Shibayama N. et al, J Am Chem Soc 2014, 136, 13, 5097-5105 and Shibayama N. et al, Biochemistry 1991, 39, 33, 8158-8165). Crosslinked HbS was subsequently biotynylated and captured on a custom made Streptavidin sensor to achieve protein density of 4000 to 5000 resonance units (RUs) on the surface. Compound binding to HbS using SPR was tested on Sierra Sensors MASS-1 instrument. The running buffer contained 100 mM Potassium Phosphate, pH 7.5, 0.005% Tween-20, 1 mM ethylenediaminetetraacetic acid (EDTA), 0.1 mg/mL bovine serum albumin with 1% DMSO. Compound samples were injected at a flow rate of 30 μL/min for 2 minutes association and at least 5 minutes of dissociation time. A 2- or 3-fold dilution series containing at least 4 concentrations were tested for each compound. The dose range was selected based on the activity of the compounds in biochemical assays, when available. Multiple blank injections of running buffer were run before and after each compound series to allow blank subtraction for compound data in the analysis software. Positive controls were run in each experiment to monitor and maintain the activity of HbS on the surface. A DMSO curve was run at the beginning of each data set to apply an excluded volume correction to the data during analysis. The data were processed and analyzed using Sierra Sensors and Scrubber 2.0 software. The binding affinities (dissociation constant Kd) were calculated by fitting the sensorgrams to a 1:1 binding model.

[2] = target: T2, HbS (Homo sapiens, UniProt P68871+P69905, E7V); assay: 'R'-'T' assay (conversion of oxy HbS to deoxy HbS under deoxygenating conditions); format: biochemical; details: 50% inhibition of HbS 'R'-'T' conversion; 3 uM HbS, <1% O2
T2 construct: HbS was obtained from the blood of homozygous S/S patients; from tissue; host or cells: red blood cells of homozygous S/S patients
Experimental: Conversion from oxy (R, relaxed state) to deoxy (T, tense state) HbS in the presence of compound was performed to determine the ability of compounds to stabilize the oxy (R) state under deoxygenating conditions. The assay run was similar to the ‘Oxygen dissociation assay’ described in Oksenberg et al, Br J Haematology, 2016, 175, 141-153.
Assay ready compound plates were prepared by first preparing a master serial dilution plate from a 30 mM initial compound stock in 100% DMSO. From this master serial dilution plate, 167 nL of the desired compound concentration was delivered to the assay ready plates using acoustical dispensing. Plates were frozen at −20° C. until needed. Purified HbS-O2 (i.e. oxy HbS) was diluted to 3 uM in 100 mM potassium phosphate buffer, pH=7.4. 50 uL of 3 uM stock solution was added to each well of the assay ready plate and mechanically mixed eight times. Following mixing the plates were covered and incubated at room temperature for one hour with moderate shaking. Following incubation, the plates were placed in a deoxygenated environment (<1% O2) for two hours, and the conversion to deoxy HbS monitored as a function of time. Oxygenated and deoxygenated forms of hemoglobin were detected using the absorbance of the Soret peaks at 415 and 430 nm respectively, and absorbance measurements (optical density, OD) were taken at 0, 90 and 120 minutes. Background absorbance for correction was collected at 700 nm.
Data were analyzed by first subtracting baseline absorbance at 700 nm from 415 nm and 430 nm data at each timepoint, and then taking the ratio of 415/430 nm data (Ratio=[(OD415−OD700)/(OD430−OD700)]. The effect at each timepoint was calculated using the ratios from the previous calculation at time 0 and each time point of interest (Effect^time x=Ratio^time x/Ratio^time 0). Percent effect was calculated by comparing the effects of compound versus HbS only with the effects observed by the positive control compound tucaresol (percent effect=[(effect^time x compound−effect^time x HbS)/(effect^time x tucaresol−effect^time x HbS)]×100). Data were reported as the percent effect for a single point. Calculations to determine the concentration of compound for 50% inhibition (IC50 (uM)) of the HbS ‘R’-‘T’ conversion were based on the percent effect at varying compound concentration.

| Structure (SMILES) | pKd [1] | pIC50 [2] |
| --- | --- | --- |
| C[C@H](Oc1cc2cc(F)ccc2nc1N)c1cc(C(=O)N[C@H]2C[C@H](O)C2)ccc1-n1cccn1 [Example 14, 3-{(1S)-1-[(2-amino-6-fluoroquinolin-3-yl)oxy]ethyl}-N-(trans-3-hydroxycyclobutyl)-4-(1H-pyrazol-1-yl)benzamide] | 7.39 | 5.37 |
| C[C@H](Oc1cc2cc(F)ccc2nc1N)c1cc(C(=O)O)c(F)cc1-n1cccn1 [Example 9, 5-{(1S)-1-[(2-amino-6-fluoroquinolin-3-yl)oxy]ethyl}-2-fluoro-4-(1H-pyrazol-1-yl)benzoic Acid] | 7.06 | 5.33 |
| C[C@H](Oc1cc2cc(F)c(Cl)cc2nc1N)c1ncccc1-n1cccn1 [Example 29, 7-chloro-6-fluoro-3-{(1S)-1-[3-(1H-pyrazol-1-yl)pyridin-2-yl]ethoxy}quinolin-2-amine] | 7.17 | 5.34 |
| C[C@H](Oc1cc2c(F)ccc(F)c2nc1N)c1cc(C(=O)O)ccc1-n1cccn1 [Example 19, 3-{(1S)-1-[(2-amino-5,8-difluoroquinolin-3-yl)oxy]ethyl}-4-(1H-pyrazol-1-yl)benzoic Acid] | 7.19 | 5.35 |
| C[C@H](Oc1cc2cc(F)ccc2nc1N)c1cc(OCC(=O)O)ccc1-n1cccn1 [Example 15, [3-{(1S)-1-[(2-amino-6-fluoroquinolin-3-yl)oxy]ethyl}-4-(1H-pyrazol-1-yl)phenoxy]acetic Acid] | 7.20 | 5.41 |
| C[C@H](Oc1cc2cc(C(N)=O)ccc2nc1N)c1nc(OCCO)ccc1-n1cccn1 [Example 42, 2-amino-3-{(1S)-1-[6-(2-hydroxyethoxy)-3-(1H-pyrazol-1-yl)pyridin-2-yl]ethoxy}quinoline-6-carboxamide] | 6.85 | 5.28 |
| C[C@H](Oc1cc2cc(C(N)=O)ccc2nc1N)c1ncccc1-n1cccn1 [Example 30, 2-amino-3-{(1S)-1-[3-(1H-pyrazol-1-yl)pyridin-2-yl]ethoxy}quinoline-6-carboxamide] | 5.82 | 5.20 |
| C[C@H](Oc1cc2cc(F)ccc2nc1N)c1nc(C(=O)O)ccc1-n1cccn1 [Example 37, 6-{(1S)-1-[(2-amino-6-fluoroquinolin-3-yl)oxy]ethyl}-5-(1H-pyrazol-1-yl)pyridine-2-carboxylic Acid] | 6.24 | 5.17 |
| C[C@H](Oc1cc2cc(C(N)=O)c(F)cc2nc1N)c1ncc(F)cc1-n1cccn1 [Example 34, 2-amino-7-fluoro-3-{(1S)-1-[5-fluoro-3-(1H-pyrazol-1-yl)pyridin-2-yl]ethoxy}quinoline-6-carboxamide] | 6.92 | 5.26 |
| C[C@H](Oc1cc2cc(F)ccc2nc1N)c1cc(C(N)=O)c(F)cc1-n1cccn1 [Example 1, 5-{(1S)-1-[(2-amino-6-fluoroquinolin-3-yl)oxy]ethyl}-2-fluoro-4-(1H-pyrazol-1-yl)benzamide] | 7.70 | 5.35 |
| C[C@H](Oc1cc2cc(C(N)=O)cc(F)c2nc1N)c1ncc(F)cc1-n1cccn1 [Example 35, 2-amino-8-fluoro-3-{(1S)-1-[5-fluoro-3-(1H-pyrazol-1-yl)pyridin-2-yl]ethoxy}quinoline-6-carboxamide] | 7.17 | 5.41 |

Second part, the compound after the results:

| pKd [1] | pIC50 [2] | Structure (SMILES) |
| --- | --- | --- |
| 7.96 | 5.52 | C[C@H](Oc1cc2cc(F)cc(F)c2nc1N)c1cc2c(cnn2CCO)cc1-n1cccn1 [Example 72, 2-[6-{(1S)-1-[(2-amino-6,8-difluoroquinolin-3-yl)oxy]ethyl}-5-(1H-pyrazol-1-yl)-1H-indazol-1-yl]ethanol] |
| 7.82 | 5.34 | C[C@H](Oc1cc2cc(F)ccc2nc1N)c1nc2[nH]ncc2cc1-n1cccn1 [Example 68, 6-fluoro-3-{(1S)-1-[5-(1H-pyrazol-1-yl)-1H-pyrazolo[3,4-b]pyridin-6-yl]ethoxy}quinolin-2-amine] |
| 7.33 | 5.35 | C[C@H](Oc1cc2cc(F)ccc2nc1N)c1cc2[nH]ncc2cc1-n1cccn1 (single isomer, unassigned) [Example 59] |
| 7.70 | 5.33 | C[C@H](Oc1cc2c(F)ccc(F)c2nc1N)c1ncc(F)cc1-n1cccn1 [Example 43, 5,8-difluoro-3-{(1S)-1-[5-fluoro-3-(1H-pyrazol-1-yl)pyridin-2-yl]ethoxy}quinolin-2-amine] |
| 6.60 | 5.33 | C[C@H](Oc1cc2ncc(F)cc2nc1N)c1nc(O)ccc1-n1cccn1 [Example 48, 6-{(1S)-1-[(2-amino-7-fluoro-1,5-naphthyridin-3-yl)oxy]ethyl}-5-(1H-pyrazol-1-yl)pyridin-2-ol] |
| 7.89 | 5.34 | C[C@H](Oc1cc2cc(F)ccc2nc1N)c1cc2c(cnn2CC(N)=O)cc1-n1cccn1 [Example 70, 2-[6-{(1S)-1-[(2-amino-6-fluoroquinolin-3-yl)oxy]ethyl}-5-(1H-pyrazol-1-yl)-1H-indazol-1-yl]acetamide] |
| 7.20 | 5.36 | C[C@H](Oc1cc2cc(C(N)=O)ccc2nc1N)c1nc(O)ccc1-n1cccn1 [Example 44, 2-amino-3-{(1S)-1-[6-hydroxy-3-(1H-pyrazol-1-yl)pyridin-2-yl]ethoxy}quinoline-6-carboxamide] |
| 6.73 | 5.25 | C[C@H](Oc1cc2ccccc2nc1N)c1ncc(F)cc1-n1cccn1 [Example 45, 3-{(1S)-1-[5-fluoro-3-(1H-pyrazol-1-yl)pyridin-2-yl]ethoxy}quinolin-2-amine] |
| 7.44 | 5.42 | Cc1cc2nc(N)c(O[C@@H](C)c3nc4[nH]ncc4cc3-n3cccn3)cc2cn1 [Example 75, 7-methyl-3-{(1S)-1-[5-(1H-pyrazol-1-yl)-1H-pyrazolo[3,4-b]pyridin-6-yl]ethoxy}-1,6-naphthyridin-2-amine] |
| 6.05 | 4.95 | Cc1ccc2nc(N)c(O[C@@H](C)c3nc(O)ccc3-n3cccn3)cc2n1 [Example 54, 6-{(1S)-1-[(2-amino-6-methyl-1,5-naphthyridin-3-yl)oxy]ethyl}-5-(1H-pyrazol-1-yl)pyridin-2-ol] |
| 6.82 | 5.08 | C[C@H](Oc1cc2cc(F)ccc2nc1N)c1cc2[nH]cnc2cc1-n1cccn1 [Example 63, 6-fluoro-3-{(1S)-1-[5-(1H-pyrazol-1-yl)-1H-benzimidazol-6-yl]ethoxy}quinolin-2-amine] |
| 7.23 | 5.37 | C[C@H](Oc1cc2cc(C(N)=O)ccc2nc1N)c1cc2c(cnn2CCO)cc1-n1cccn1 (single isomer, unassigned) [Example 74] |
